Where a SMILES comes first, the peptide text is derived from it. [ ]: non-standard residue; d: D form. The star is where a group is joined. X1 = Cn1c(Br)c(Br)c(Br)c1C(=O)*; NMeL = CN[C@@H](CC(C)C)C(=O)O
Key:
P388 = assay: Cytotoxicity against mouse P388 cells; format: functional, cell-based
WRL68 = assay: Cytotoxicity against human WRL68 cells by MTT assay; format: functional, cell-based
MCF7 = assay: Cytotoxicity against human MCF7 cells by MTT assay; format: functional, cell-based
Caco-2 = assay: Cytotoxicity against human Caco-2 cells by MTT assay; format: functional, cell-based
SW-620 = assay: Cytotoxicity against human SW620 cells assessed as cell growth inhibition; format: functional, cell-based
[1] = Inhibition of CK1gamma (unknown origin); design: species or system Homo sapiens
KB 3-1 = assay: Cytotoxicity against human KB-3-1 cells assessed as cell growth inhibition; format: functional, cell-based
[2] = biological target: Cyclin-dependent kinase 5/CDK5 activator 1 (Homo sapiens, UniProt Q00535); assay: Inhibition of CDK5/p25 (unknown origin); format: protein-complex assay
Cyclin-dependent kinase 5/CDK5 activator 1, sequence (Q00535 whole entry): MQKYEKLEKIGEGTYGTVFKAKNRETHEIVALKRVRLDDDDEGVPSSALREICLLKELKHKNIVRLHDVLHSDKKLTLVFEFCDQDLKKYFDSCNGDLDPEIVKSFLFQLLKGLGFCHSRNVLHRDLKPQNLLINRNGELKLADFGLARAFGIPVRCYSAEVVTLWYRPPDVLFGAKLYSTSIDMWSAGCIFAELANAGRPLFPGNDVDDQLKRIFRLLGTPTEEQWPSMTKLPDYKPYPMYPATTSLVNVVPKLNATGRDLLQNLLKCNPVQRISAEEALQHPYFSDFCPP
Cyclin-dependent kinase 5/CDK5 activator 1, sequence (Q15078 whole entry, further chain): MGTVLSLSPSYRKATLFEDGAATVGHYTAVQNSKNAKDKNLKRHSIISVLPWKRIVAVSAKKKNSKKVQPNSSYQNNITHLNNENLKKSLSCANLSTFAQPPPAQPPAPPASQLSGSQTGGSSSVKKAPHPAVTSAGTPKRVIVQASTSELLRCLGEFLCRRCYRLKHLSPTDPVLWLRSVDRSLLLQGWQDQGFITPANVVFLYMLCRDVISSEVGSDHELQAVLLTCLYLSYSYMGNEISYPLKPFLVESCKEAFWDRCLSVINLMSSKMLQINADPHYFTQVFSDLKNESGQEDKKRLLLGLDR

KB = assay: Cytotoxicity against human KB cells; format: functional, cell-based
K562 [3] = assay: Cytotoxicity against human K562 cells; format: functional, cell-based
L1210 = assay: Cytotoxicity against mouse L1210 cells; format: functional, cell-based
[4] = biological target: E3 ubiquitin-protein ligase CBL-B (Homo sapiens, UniProt Q13191); assay: Inhibition of Cbl-b (unknown origin) assessed as inhibition of Cbl-b dependent ubiquitination in presence of ATP measured after 13 hrs by fluorescence microplate reader assay
E3 ubiquitin-protein ligase CBL-B, sequence (Q13191 whole entry): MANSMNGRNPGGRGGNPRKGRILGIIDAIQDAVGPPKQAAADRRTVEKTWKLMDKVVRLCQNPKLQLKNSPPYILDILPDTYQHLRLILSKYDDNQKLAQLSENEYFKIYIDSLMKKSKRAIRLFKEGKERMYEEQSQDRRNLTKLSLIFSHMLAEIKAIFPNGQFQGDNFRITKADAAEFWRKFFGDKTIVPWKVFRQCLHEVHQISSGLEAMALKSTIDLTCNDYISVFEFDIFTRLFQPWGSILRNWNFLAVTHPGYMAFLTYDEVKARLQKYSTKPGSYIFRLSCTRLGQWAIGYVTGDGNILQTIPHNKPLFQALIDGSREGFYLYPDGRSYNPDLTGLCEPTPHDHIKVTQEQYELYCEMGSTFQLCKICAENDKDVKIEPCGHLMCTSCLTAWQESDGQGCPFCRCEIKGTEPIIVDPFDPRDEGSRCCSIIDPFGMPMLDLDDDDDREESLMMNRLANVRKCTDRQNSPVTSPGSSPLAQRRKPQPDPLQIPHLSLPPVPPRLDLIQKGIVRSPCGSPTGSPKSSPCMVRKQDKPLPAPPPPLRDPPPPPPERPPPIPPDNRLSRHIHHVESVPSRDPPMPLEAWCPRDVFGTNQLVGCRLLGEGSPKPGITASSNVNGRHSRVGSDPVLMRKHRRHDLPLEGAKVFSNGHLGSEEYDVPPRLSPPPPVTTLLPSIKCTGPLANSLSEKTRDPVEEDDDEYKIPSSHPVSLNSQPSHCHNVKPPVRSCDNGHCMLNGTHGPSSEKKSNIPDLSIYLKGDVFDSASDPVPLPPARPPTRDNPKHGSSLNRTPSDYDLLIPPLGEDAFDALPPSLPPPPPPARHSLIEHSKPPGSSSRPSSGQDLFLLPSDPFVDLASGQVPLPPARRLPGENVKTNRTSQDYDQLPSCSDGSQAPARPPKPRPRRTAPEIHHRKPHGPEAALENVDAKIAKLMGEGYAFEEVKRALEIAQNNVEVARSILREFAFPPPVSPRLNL

K562 [5] = assay: Cytotoxicity against human K562 cells by MTT assay; format: functional, cell-based
L02 = assay: Cytotoxicity against human L02 cells by MTT assay; format: functional, cell-based
VIP peptides = VIP peptides (Homo sapiens, UniProt P01282); assay: Displacement of [125I]-VIP from Vasoactive intestinal peptide (unknown origin) incubated for 120 mins by gamma scintillation counter analysis
VIP peptides, sequence (P01282 125-152 limits assumed): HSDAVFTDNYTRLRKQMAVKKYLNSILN

[6] = Displacement of [125I]-somatostatin from somatostatin (unknown origin) incubated for 60 mins by gamma scintillation counter analysis; design: species or system Homo sapiens
HT-29 = assay: Cytotoxicity against human HT-29 cells assessed as cell growth inhibition by cell based assay; format: functional
A549 = assay: Cytotoxicity against human A549 cells assessed as cell growth inhibition by cell based assay; format: functional
PSN1 = assay: Cytotoxicity against human PSN1 cells assessed as cell growth inhibition by cell based assay; format: functional
MDA-MB-231 = assay: Cytotoxicity against human MDA-MB-231 cells assessed as cell growth inhibition by cell based assay; format: functional
[7] = biological target: Receptor tyrosine-protein kinase erbB-2 (Homo sapiens, UniProt P04626); assay: Inhibition of c-ErbB-2 (unknown origin)
Receptor tyrosine-protein kinase erbB-2, sequence (P04626 whole entry): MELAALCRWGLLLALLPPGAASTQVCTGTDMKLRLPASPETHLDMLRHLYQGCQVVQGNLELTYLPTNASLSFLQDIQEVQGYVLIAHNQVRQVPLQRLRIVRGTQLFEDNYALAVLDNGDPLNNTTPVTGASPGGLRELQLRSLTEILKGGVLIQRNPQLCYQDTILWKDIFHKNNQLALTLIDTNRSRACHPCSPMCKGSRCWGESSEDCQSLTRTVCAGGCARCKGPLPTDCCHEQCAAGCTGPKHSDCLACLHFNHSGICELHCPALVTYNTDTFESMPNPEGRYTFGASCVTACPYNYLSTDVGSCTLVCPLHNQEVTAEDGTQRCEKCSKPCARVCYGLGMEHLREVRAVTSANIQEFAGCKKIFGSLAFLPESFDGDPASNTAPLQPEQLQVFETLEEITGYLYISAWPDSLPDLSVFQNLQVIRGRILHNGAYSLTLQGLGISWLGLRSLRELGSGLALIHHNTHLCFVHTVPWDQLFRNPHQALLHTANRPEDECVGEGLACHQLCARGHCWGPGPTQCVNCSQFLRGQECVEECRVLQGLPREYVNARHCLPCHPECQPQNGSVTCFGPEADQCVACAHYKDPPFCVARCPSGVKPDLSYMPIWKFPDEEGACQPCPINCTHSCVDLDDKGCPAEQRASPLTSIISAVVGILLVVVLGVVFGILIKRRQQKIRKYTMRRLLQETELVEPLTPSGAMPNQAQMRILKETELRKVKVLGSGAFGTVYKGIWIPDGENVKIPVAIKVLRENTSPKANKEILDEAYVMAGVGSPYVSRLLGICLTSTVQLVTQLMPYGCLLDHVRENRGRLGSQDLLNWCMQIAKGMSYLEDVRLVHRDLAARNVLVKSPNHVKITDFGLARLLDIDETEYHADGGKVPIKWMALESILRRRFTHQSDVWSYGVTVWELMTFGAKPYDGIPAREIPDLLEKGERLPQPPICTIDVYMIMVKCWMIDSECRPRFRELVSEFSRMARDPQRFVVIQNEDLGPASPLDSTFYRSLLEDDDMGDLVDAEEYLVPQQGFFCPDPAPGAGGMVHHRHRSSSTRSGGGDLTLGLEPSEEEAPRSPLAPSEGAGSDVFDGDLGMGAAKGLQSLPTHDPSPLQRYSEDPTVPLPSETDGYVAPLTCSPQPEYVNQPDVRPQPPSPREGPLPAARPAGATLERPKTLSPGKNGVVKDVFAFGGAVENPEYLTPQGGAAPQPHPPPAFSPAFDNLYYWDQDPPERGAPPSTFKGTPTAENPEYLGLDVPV

[8] = biological target: Epidermal growth factor receptor (Homo sapiens, UniProt P00533); assay: Inhibition of EGFR (unknown origin)
Epidermal growth factor receptor, sequence (P00533 whole entry): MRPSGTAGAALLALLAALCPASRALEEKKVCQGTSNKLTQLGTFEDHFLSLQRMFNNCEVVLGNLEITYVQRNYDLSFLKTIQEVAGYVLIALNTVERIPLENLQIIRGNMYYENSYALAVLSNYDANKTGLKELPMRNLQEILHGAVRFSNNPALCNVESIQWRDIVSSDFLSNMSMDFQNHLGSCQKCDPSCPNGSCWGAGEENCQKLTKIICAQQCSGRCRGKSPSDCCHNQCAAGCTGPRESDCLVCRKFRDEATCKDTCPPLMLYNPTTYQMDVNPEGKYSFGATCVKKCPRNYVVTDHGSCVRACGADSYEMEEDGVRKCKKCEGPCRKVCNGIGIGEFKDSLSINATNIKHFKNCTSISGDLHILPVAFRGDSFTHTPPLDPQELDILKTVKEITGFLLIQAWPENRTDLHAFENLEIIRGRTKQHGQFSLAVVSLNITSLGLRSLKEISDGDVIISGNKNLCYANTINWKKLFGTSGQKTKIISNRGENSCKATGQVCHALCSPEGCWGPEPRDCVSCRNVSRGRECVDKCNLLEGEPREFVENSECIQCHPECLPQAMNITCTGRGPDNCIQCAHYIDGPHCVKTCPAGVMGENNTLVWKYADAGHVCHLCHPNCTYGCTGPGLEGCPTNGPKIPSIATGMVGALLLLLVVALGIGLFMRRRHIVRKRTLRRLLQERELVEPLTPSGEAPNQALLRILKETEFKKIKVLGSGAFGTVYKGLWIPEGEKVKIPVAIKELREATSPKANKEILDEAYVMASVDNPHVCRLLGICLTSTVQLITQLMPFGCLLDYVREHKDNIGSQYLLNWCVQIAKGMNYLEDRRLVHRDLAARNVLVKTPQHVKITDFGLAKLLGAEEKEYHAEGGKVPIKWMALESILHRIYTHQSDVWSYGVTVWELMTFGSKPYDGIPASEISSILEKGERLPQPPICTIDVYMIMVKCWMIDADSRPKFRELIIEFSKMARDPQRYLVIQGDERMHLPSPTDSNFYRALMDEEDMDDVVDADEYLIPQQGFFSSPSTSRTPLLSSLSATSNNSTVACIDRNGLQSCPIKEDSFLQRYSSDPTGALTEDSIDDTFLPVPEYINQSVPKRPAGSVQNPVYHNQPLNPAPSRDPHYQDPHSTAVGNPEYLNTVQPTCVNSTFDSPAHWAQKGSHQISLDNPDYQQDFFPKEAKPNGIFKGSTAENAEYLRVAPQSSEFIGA

MONO-MAC-6 = assay: Cytotoxicity against human MONO-MAC-6 cells incubated for 48 hrs by [3H]-thymidine incorporation based liquid scintillation counter analysis; format: functional, cell-based
PC-9 = assay: Cytotoxicity against human PC-9 cells incubated for 48 hrs by MTT assay; format: functional, cell-based; conditions: PC-9, 48 h
U-937 = assay: Cytotoxicity against human U-937 cells incubated for 48 hrs by MTT assay; format: functional, cell-based; conditions: U-937, 48 h
[9] = Inhibition of recombinant human MAPK expressed in Escherichia coli assessed as reduction in MEK-1 phosphorylation incubated for 60 mins by ELISA assay
LoVo = assay: Inhibition of cell growth in human LoVo cells by SRB assay; format: functional, cell-based
Jurkat = assay: Antiinflammatory activity in PMA induced human Jurkat cells assessed as inhibition of IL-2 production by EIA assay; format: functional, cell-based
THP-1 = assay: Antiinflammatory activity in LPS induced human THP-1 cells assessed as inhibition of TNF-alpha production by EIA assay; format: functional, cell-based

NC1=N[C@]23[C@H](N1)c1[nH]c(Br)c(Br)c1C(=O)N2C[C@H](O)[C@H]3O
IC50 (P388): 78.4 µM

Cn1c(C(=O)NNC(=S)Nc2ccccc2F)cc(Br)c1Br
IC50 (WRL68): 0.01 µM | IC50 (MCF7): 0.01 µM | IC50 (Caco-2): 0.01 µM

N=C1NC(=O)C(=C2CCNC(=O)c3[nH]c(Br)cc32)N1
IC50 (SW-620): 3.1 µM | IC50 [1]: 0.03 µM | IC50 (KB 3-1): 2 µM | IC50 [2]: 0.16 µM

N=C1N=C(NCCS(=O)(=O)O)C(O)(/C=C/CNC(=O)c2cc(Br)c(Br)[nH]2)N1 (stereo unspecified)
IC50 (KB): 20.7 µM | IC50 (K562 [3]): 20.7 µM

NC1NC2c3c([nH]c(Br)c3Br)C(=O)N3C[C@H](Cl)[C@H](O)C23N1 (stereo partly specified)
IC50 (L1210): 5.68 µM

Cn1cc(Br)cc1C(=O)NC[C@H]1CC2N=C(N)NC2[C@@H](c2c[nH]c(N)n2)[C@@H]1CNC(=O)c1cc(Br)c(Br)[nH]1 (stereo partly specified)
IC50 [4]: 18 µM

Cn1cccc1C(=O)NC[C@H]1CC2N=C(N)NC2[C@@H](c2c[nH]c(N)n2)[C@@H]1CNC(=O)c1cc(Br)c(Br)n1C (stereo partly specified)
IC50 [4]: 18 µM

O=C1NC(=O)/C(=C/CCNC(=O)c2[nH]cc(Br)c2Br)N1
IC50 (K562 [5]): 6.1 µM | IC50 (L02): 12.3 µM

NC1=NC2C[C@H](CNC(=O)c3cc(Br)c[nH]3)[C@@H](CNC(=O)c3cc(Br)c[nH]3)[C@H](c3nc(N)c[nH]3)C2N1 (stereo partly specified)
IC50 (VIP peptides): 19.2 µM | IC50 [6]: 2.2 µM

COc1cc(NC(=S)NNC(=O)c2cc(Br)c(Br)n2C)cc(OC)c1OC
IC50 (WRL68): 0.03 µM | IC50 (MCF7): 0.03 µM | IC50 (Caco-2): 0.03 µM

Cn1c(C(=O)NC[C@H]2CC3N=C(N)NC3[C@@H](c3c[nH]c(N)n3)[C@@H]2CNC(=O)c2cc(Br)c[nH]2)cc(Br)c1Br (stereo partly specified)
IC50 [4]: 18 µM

Cn1cc(Br)cc1C(=O)NC[C@@H]1[C@@H](CNC(=O)c2ccc(Br)[nH]2)CC2N=C(N)NC2[C@H]1c1c[nH]c(N)n1 (stereo partly specified)
IC50 [4]: 18 µM

CC[C@H](C)[C@H](NC(=O)c1c(Br)c(Br)c(Br)n1C)C(=O)N(C)[C@@H](CC(C)C)C(=O)N1CCC[C@H]1C(=O)N[C@@H](CCC(N)=O)C(=O)O (X1-I[NMeL]PQ-OH)
GI50 (HT-29): > 12 µM | GI50 (A549): > 12 µM | GI50 (PSN1): > 12 µM | GI50 (MDA-MB-231): > 12 µM

N=C1N=C(NCCS(=O)(=O)O)/C(=C/C(O)CNC(=O)c2cc(Br)c[nH]2)N1 (mixture of isomers)
IC50 [7]: 37.9 µM

N=C1N=C(NCCS(=O)(=O)O)/C(=C/C(O)CNC(=O)c2cc(Br)c(Br)[nH]2)N1 (mixture of isomers) [TAUROACIDIN A]
IC50 [7]: 37.9 µM | IC50 [8]: 44.6 µM

COC(=O)CC1CNC(=O)c2cc(Br)c(Br)n21 (racemic)
EC50 (P388; read-out: ED50 (the source's name)): 82 µM

NC1=N/C(=C2/CCNC(=O)c3[nH]ccc32)C(=O)N1 [DEBROMOHYMENIALDISINE]
IC50 (MONO-MAC-6): 9.67 µM

COc1cccc2c1C(=O)c1c(O)c3c(c(O)c1C2=O)C[C@@](O)(C(=O)CO)C[C@@H]3O[C@H]1C[C@H](N)[C@H](O)[C@H](C)O1 [DOXORUBICIN]
IC50 (PC-9): 0.22 µM | IC50 (U-937): 0.05 µM

NC1=NC(=O)/C(=C2\CCNC(=O)c3[nH]c(Br)cc32)N1 [HYMENIALDISINE]
IC50 [9]: 0.006 µM | IC50 (MONO-MAC-6): 0.61 µM | IC50 (LoVo): 0.006 µM | IC50 (Jurkat): 4 µM

S=C(S)N1CCCC1 [PYRROLIDINE DITHIOCARBAMATE]
IC50 (Jurkat): 5.12 µM | IC50 (THP-1): 6.11 µM

Nc1nc([C@H]2[C@H](CNC(=O)c3cc(Br)c[nH]3)[C@@H](CNC(=O)c3cc(Br)c[nH]3)[C@@H]2c2c[nH]c(N)n2)c[nH]1 [SCEPTRIN]
IC50 (VIP peptides): 19.8 µM | IC50 [6]: 0.27 µM

Reference: ChEMBL document CHEMBL5241122, “A concise review on marine bromopyrrole alkaloids as anticancer agents” (Bioorg Med Chem Lett, 2023)
